Molecules are shown by their SMILES. Where only a bound is given, the exact number is not on record here.

This note sets out measurements from patent US11590185B2, “Antioxidant composition comprising Sargassum serratifolium extract or fraction thereof as active ingredient” (PUKYONG NATIONAL UNIVERSITY INDUSTRY-UNIVERSITY COOPERATION …, priority 2015, dated 2023).

Data set [1] deals with 661W photoreceptor cells. Description: Cytotoxicity on 661W photoreceptor cells (MTS). As to conditions: 661W cells, separated compounds. The format is cell-based, mouse. As to the method:
(§1) 661W photoreceptor cells were cultured in 96-wells at a concentration of 3×10^3 cells/well. Then, they were treated with 1.0 μg/ml Sargassum serratifolium ethanol extract or compounds separated therefrom (sargahydroquinoic acid (SHQ), sargachromenol (SCM), and sargaquinoic acid (SQA)) at a concentration of 1.0 μM and cultured for 24 hours. Then, the medium was replaced with medium containing MTS reagent. Then, they were cultured for 1 hour. Cell viability was measured by measuring the absorbance at 490 nm and comparing the results. The cell viability thereof was analyzed by Celltiter^96 Aqueous One solution assay kit (Promega).
as §1, with “viability” for “viability thereof”

For data set [2], the system named is 661W photoreceptor cells. Description: Cell viability of 661W cells under atRAL oxidative stress (MTS). The format is cell-based, mouse. The note with it: 24 hours; for viability at 0.5 µM: Mus musculus, 661W, 0.5 μM compound with atRAL 1.8 μM. As to the method:
In detail, 661W photoreceptor cells were cultured in 96-wells at a concentration of 3×10^3 cells/well and treated with atRAL having a concentration of 1.8 μM (Sigma Aldrich, St. Louis, Mo., USA) for 24 hours. Then, the medium was replaced with medium containing MTS reagent, and they were cultured for 1 hour. The absorbance thereof was measured at 490 nm, and the results were compared to determine cell viability. The cell viability thereof was measured by Celltiter^96 Aqueous One solution assay kit (Promega).

Data set [3] concerns reactive oxygen species in 661W photoreceptor cells. The experiment in a line: Reactive oxygen species in atRAL-treated 661W cells (DCFH-DA, flow cytometry). The format is cell-based, mouse. The note with it: 30 minutes. As to the method:
For reference, 2′,7′-dichlorodihydrofluorescein diacetate (DCFH-DA) converts to DCF, which expresses fluorescence in response to oxidative stress in cells. Therefore, the expression of DCF in cells is used as an indicator of the degree of oxidative stress.
In order to examine the antioxidative effect of the Sargassum serratifolium ethanol extract and the compounds separated therefrom of the present invention, atRAL (1.8 μM) and Sargassum serratifolium ethanol extract (0.5 μg/mL), sargachromenol (0.5 μM), sargahydroquinoic acid (0.5 μM), or sargaquinoic acid (1.0 μM) were added to medium mixed with DCFH-DA (20 μM), and the photoreceptor cells were treated with them and cultured for 30 minutes. Then, the cells were washed with PBS, and the cells were recovered. The cells expressing the fluorescence were measured using flow cytometry.
In order to examine the antioxidative effect of the Sargassum serratifolium ethanol extract and the compounds separated therefrom of the present invention, atRAL (1.8 μM) and Sargassum serratifolium ethanol extract (0.5 μg/mL), sargachromenol (0.5 μM), sargahydroquinoic acid (0.5 μM) or sargaquinoic acid (1.0 μM) were added to medium mixed with DCFH-DA (20 μM), and the photoreceptor cells were treated with them and cultured for 30 minutes. Then, the cells were washed with PBS, and the cells were recovered. The cells expressing the fluorescence were measured using flow cytometry.

In data set [4] the test system is malondialdehyde (MDA) production in 661W photoreceptor cells. Description: Malondialdehyde (MDA) denatured protein in atRAL-treated 661W cells (MDA immunoblot). The note with it: 2 hours; for expression level of MDA-denatured protein compared with group treated with atRAL only: sargachromenol 0.5 μM, sargahydroquinoic acid 0.5 μM or sargaquinoic acid 1.0 μM, with atRAL 1.8 μM. Type of data set: cell-based, mouse. As to the method: For reference, the malondialdehyde (MDA) is the result of lipid peroxidation by excessive oxidative stress in cells, and thus the amount of MDA in cells is a factor to measure the degree of oxidative stress.
(§2) In detail, samples of each of Sargassum serratifolium ethanol extract and the compounds separated therefrom were mixed with a specific amount of atRAL (1.8 μM) and Sargassum serratifolium ethanol extract (0.5 μg/mL), sargachromenol (0.5 μM), sargahydroquinoic acid (0.5 μM), or sargaquinoic acid (1.0 μM). The photoreceptor cells were treated with mixtures thereof. Then, they were cultured for 2 hours. The cells were then washed with PBS and the intracellular proteins were recovered. The number of proteins denatured by the lipid peroxides in cells was analyzed by protein immunoassay using MDA immunoblot kit (Cell biolabs).
as §2, with “acid (0.5 μM) or sargaquinoic” for “acid (0.5 μM), or sargaquinoic”, “treated with mixtures. Then, they” for “treated with mixtures thereof. Then, they”
In general terms: In western blotting, separated proteins are transferred to a membrane and probed.

Data set [5] is described as follows: DPPH radical scavenging activity. Type of data set: biochemical. As to conditions: DPPH 200 μM, 30 minutes, 517 nm. Background: Loss of DPPH colour is used to gauge radical scavenging.
Experimental: For the measurement, 100 μl DPPH having a concentration of 200 μM and 100 μl the sample were mixed in a 96-well plate, and they reacted at room temperature for about 30 minutes. Then, the absorbance thereof was measured at 517 nm using a microplate reader. BHT was used as a positive control. The concentration was compared at the same as that of the sample.
DPPH radical scavenging activity was calculated by the method as described below. Radical scavenging activity (%)=(ADPPH−Asample)/ADPPH×100
For the measurement, 100 μl DPPH having a concentration of 200 μM and 100 μl the sample were mixed in a 96-well plate, and they reacted at room temperature for about 30 minutes. Then, the absorbance thereof was measured at 517 nm using a microplate reader. BHT was used as a positive control. The concentration thereof was compared to the same as that of the sample.
DPPH radical scavenging activity was calculated by the method as described below.
Data set [6] in a line: ABTs assay (ABTs cation scavenging). The format is biochemical. As to conditions: 6 minutes, 732 nm. How it is done: The ABTs assay is similar to the DPPH assay but differs in that antioxidative activity is measured by generating free radicals through chemical reactions. ABTs are reacted with potassium persulfate to generate ABTs […] radicals, which react with H-donors such as phenolic compounds to be converted to colorless ABTs. Accordingly, the degree of antioxidative activity may be determined by measuring the amount of ABTs consumed by reacting with a sample containing a phenolic compound.
ABTs antioxidative activity was measured by partially modified Van den Berg (1999) and others using the discoloration of ABTs radical-specific green color by antioxidants.
Potassium persulfate was added to 7 mM ABTs solution at a final concentration of 2.4 mM. They reacted in the dark for 12 hours to 16 hours at R/T so as to produce ABTs cations. The resulting ABTs cation was diluted to be used, having an absorbance value of 0.7±0.02. […] The absorbance thereof was measured at 732 nm. The radical scavenging activity was calculated from the measured values as follows. […]
Potassium persulfate was added to 7 mM ABTS solution at a final concentration of 2.4 mM. […] The resulting ABTs cation was diluted to be used, having an absorbance value of 0.7±0.02. […] The absorbance thereof was measured at 732 nm. The radical scavenging activity was calculated from the measured values as follows. […]

Data set [7] can be described thus: Hydroxyl radical scavenging (deoxyribose test). Type of data set: biochemical. The note with it: 37° C. 1 hour, 532 nm. As to the method: Hydroxyl radicals (—OH) are the most reactive radicals among oxygen radicals, which occur during aerobic metabolism in the human body. These radicals damage peripheral cells to create collateral living body molecules. A deoxyribose test was performed so as to measure the ability to scavenge hydroxyl radicals. Hydroxyl radicals attack deoxyribose to create small fragments. Some of which are pink when added with TBA (thiobarbituric acid) under an acidic pH environment, so the degree of damage by hydroxyl radicals is measured by absorbance at 532 nm.
Experimental methods described in Chandini, Ganesan, and Bhaskar (Chandini, S. K., Ganesan, p., and Bhaskar, N. (2008) In vitro antioxidant activities of three selected brown seaweeds of India. Food Chemistry, 107, 707-713) were modified to be used. […] 1 ml the sample to be measured was mixed with the working solution, and 0.1 ml ascorbic acid (1 mM) is added to form Fe2+−EDTA mixture which is an […] of ferric chloride (FeCl3) and ethylenediamine tetraacetic acid (EDTA). […] The absorbance thereof was measured. […]
Experimental methods described in Chandini, Ganesan, and Bhaskar (Chandini, S. K., Ganesan, p., and Bhaskar, N. (2008) In vitro antioxidant activities of three selected brown seaweeds of India. Food Chemistry, 107, 707-713) were modified to be used. […] The absorbance thereof was measured. […]

[8] abbreviates: compound 0.5 μM and atRAL 1.8 μM.

The term viability denotes a read-out of living cells in per cent, often relative to untreated cells. Regarding `CC(C)=CCC/C(=C/CC/C(C)=C/CC/C(C)=C/CC1=CC(=O)C=C(C)C1=O)C(=O)O` [sargaquinoic acid], the “concentration up to which there was no cytotoxicity” value in the data set on 661W photoreceptor cells [1] was at most 1000 nM. In the data set with 661W photoreceptor cells [2], the viability at 0.5 µM is over 90%. The “fluorescence expression level (DCF) reduced compared to group treated with atRAL only” value in data set [3] (compound 1.0 μM and atRAL 1.8 μM) was found to be 73%. Besides, the “expression level of MDA-denatured protein compared with group treated with atRAL only” value in data set [4] is “effectively reduced”.

On to `CC1=C(/C=C/C(C)=C/C=C/C(C)=C/C=O)C(C)(C)CCC1` [atRAL, all-trans-retinal, reference compound], for which the “cell viability reduced in the only atRAL-treated group” value in the data set with 661W photoreceptor cells [2] (atRAL 1.8 μM alone) is given as “about 55%”. In addition, the “fluorescence expression level (DCF) higher than that of the control group” value in data set [3] (atRAL 1.8 μM only) is “about 80%”. The “expression level of protein denatured by MDA compared with the control” value in data set [4] (atRAL 1.8 μM only) is given as “increased”.

In the data set with 661W photoreceptor cells [2], `CC(C)=CCC/C(=C/CC/C(C)=C/CC/C(C)=C/Cc1cc(O)cc(C)c1O)C(=O)O` [sargahydroquinoic acid] showed a viability at 0.5 µM of over 90%. Besides, the “fluorescence expression level (DCF) reduced compared to group treated with atRAL only” value in data set [3] (setting [8]) is given as 77%; in data set [3] (compound 0.5 μM and atRAL 1.8 μM, listed as SHQ) it was “about 76%”. In addition, the “expression level of MDA-denatured protein compared with group treated with atRAL only” value in data set [4] was “effectively reduced”.

Turning to `Cc1cc(C(C)(C)C)c(O)c(C(C)(C)C)c1` [BHT], in data set [5], the “DPPH (IC50, μg/ml)” value stood at 11.18 ± 0.15 µg/mL. For the same molecule, in data set [6], the “ABTs (IC50, μg/ml)” value was determined as 7.77 ± 0.74 µg/mL. Further, the “OH radical (IC50, μg/ml)” value in data set [7] turned out to be 1.675 ± 0.21 µg/mL.

In the data set with 661W photoreceptor cells [2], `CC(C)=CCC/C(=C/CC/C(C)=C/CCC1(C)C=Cc2cc(O)cc(C)c2O1)C(=O)O` (stereo not drawn) [sargachromenol] returned a viability at 0.5 µM of over 90%. In addition, the “fluorescence expression level (DCF) reduced compared to group treated with atRAL only” value in data set [3] (setting [8]) is recorded as 76%; in data set [3] (compound 0.5 μM and atRAL 1.8 μM, listed as SCM) it was about 77%. Further, the “expression level of MDA-denatured protein compared with group treated with atRAL only” value in data set [4] is reported as “effectively reduced”.
